Results on 66 molecules are retold here after US20110306621A1, “ACYLGUANIDINE DERIVATIVES” (priority 2009, published 2011).

Structures are written as SMILES.

What is called Ki is the equilibrium dissociation constant of an inhibitor or competing ligand from its target.

For this assay, the target named is T1, human 5-HT5A receptor (Homo sapiens, UniProt P47898).
T1 construct: expressed in transfected cells; membranes used
T1 sequence (P47898 whole entry): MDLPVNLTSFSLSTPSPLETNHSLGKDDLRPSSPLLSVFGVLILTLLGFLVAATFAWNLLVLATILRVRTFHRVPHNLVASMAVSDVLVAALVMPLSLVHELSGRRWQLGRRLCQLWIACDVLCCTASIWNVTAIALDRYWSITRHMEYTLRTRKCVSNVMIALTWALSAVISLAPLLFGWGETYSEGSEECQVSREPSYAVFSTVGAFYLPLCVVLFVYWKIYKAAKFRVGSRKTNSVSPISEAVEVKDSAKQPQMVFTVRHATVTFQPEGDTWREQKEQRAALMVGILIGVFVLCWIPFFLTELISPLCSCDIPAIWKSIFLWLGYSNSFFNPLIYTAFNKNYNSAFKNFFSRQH
As to the kind of experiment: Test on a human 5-HT5A receptor binding inhibition ([3H]5-CT). The following applies: membrane from HEK293 cells for forced expression of human 5-HT5A receptor; Ki calculated from IC50 and Kd of [3H]5-CT (4.95 nM). The protocol:
The ORF (open reading frame; protein coding region) of a human 5-HT5A receptor (Genbank AF498985) was cloned from a human hippocampus cDNA library, and then inserted into a pCR2.1 vector (Invitrogen), and Escherichia coli containing the plasmid was cultured in a large amount. Next, the full-length cDNA sequence of the human 5-HT5A receptor was analyzed, and recombined into a pcDNA3.1 vector (Invitrogen) as an expression vector and cultured in a large amount. HEK293 established cells (ATCC) derived from the human fetal kidney were seeded, the expression plasmid (1 μg) obtained above were added thereto with LIPOFECTAMINE 2000 (Invitrogen; 2 μl), the gene was transfected into HEK293 cells, and the expression cells were screened with a drug-resistant marker, Geneticin (G418 sulfate 500 μg/ml; Kanto Chemical Co., Inc.). Thus prepared recombinant cells which expressed the gene were cultured in a medium containing D-MEM (Dulbecco's modified eagle medium, Sigma), 10% FCS (Fetal calf serum: fetal bovine serum), 1% Pc./Sm (Penicillin/Streptomycin, Invitrogen), and 500 μg/ml G418 for 3 days. These experimental operations followed a manual for gene operation experiment and an instruction appended in a reagent, and the like, such as a known method (Sambrook, J. et al, Molecular Cloning-A Laboratory Manual”, Cold Spring Harabor laboratory, NY, 1989).
HEK293 cells for forced expressions of a human 5-HT5A receptor were cultured in a F500 plate, and scraped with a scraper. After centrifugation, the precipitate was collected, and an incubation buffer (50 mM Tris (HCl) (pH 7.4), 10 mM MgSO4, and 0.5 mM EDTA (ethylenediamine tetraacetic acid)) was added thereto. After homogenization, it was further centrifuged, and the incubation buffer was added to the precipitate, followed by thoroughly suspending. The operation was repeated, and protein concentration was measured, thereby completing preparation of the membrane.
A solution of the compound to be tested and 100 μM 5-CT (5-carboxamidetriptamine) in DMSO was added to a 96-well plate at 2 μl/well, suspended in an incubation buffer, and a membrane from HEK293 cells for forced expressions of a human 5-HT5A receptor prepared at 200 μg/ml was added at 100 μl/well. After incubation at room temperature for 15 minutes, a [^3H]5-CT solution (2 nM [^3H]5-CT, incubation buffer) was added thereto at 100 μl/well.
Separately, 100 μl of the solution was distributed into a liquid scintillation vial, and 2 ml of Aquasol II (registered trademark) was added thereto, followed by stirring. Then, radioactivity was measured by a liquid scintillation counter. It was incubated at 37° C. for 60 minutes. The reaction mixture was sucked into 96-well GF/C filter plate that had been pre-treated with 0.2% polyethyleneimine, and washed six times with an ice-cooled, 50 mM Tris (pH 7.5) buffer. The GF/C filter plate was dried.
Microscint TMPS (registered trademark) was added thereto at 40 μl/well. Radioactivity remaining on the GF/C filter plate was measured by a top counter.
The [^3H]5-CT binding inhibiting activity by the compound to be tested in each experiment was determined as an IC50 value with a radioactivity upon addition of DMSO alone being 0% inhibition, and a radioactivity upon addition of 1 μM 5-CT being 100% inhibition. Separately, Ki values were calculated from the Kd value of the [^3H]5-CT determined from Scatchard analysis, by the following equation.
Ki=IC50 (1+Concentraion of ligand added/Kd (4.95 nM))
On to `N#Cc1ccc(-c2cccc3ccc(C(=O)N=C(N)N)cc23)cc1` [Example 2], for which the Ki is 0.3 to 3 nM. As for `COc1cc(C#N)ccc1-c1cccc2ccc(C(=O)N=C(N)N)cc12` [Example 3], the Ki is 0.3 to 3 nM. In the case of `COc1cc(F)ccc1-c1cccc2ccc(C(=O)N=C(N)N)cc12` [Example 4], the Ki is 0.3 to 3 nM. `COc1ccc(-c2cccc3ccc(C(=O)N=C(N)N)cc23)c(OC)c1` [Example 5]: the inhibitory constant (Ki) was 0.3 to 3 nM. Regarding `NC(N)=NC(=O)c1ccc2cccc(-c3ccccc3F)c2c1` [Example 6], the Ki was 0.3 to 3 nM. For `NC(N)=NC(=O)c1ccc2cccc(-c3ccccc3Cl)c2c1` [Example 7], the Ki was 0.3 to 3 nM. The result for `COc1ncccc1-c1cccc2ccc(C(=O)N=C(N)N)cc12` [Example 8] reads 3 to 30 nM; that for `N#Cc1ccc(-c2c(F)ccc3ccc(C(=O)N=C(N)N)cc23)cc1` [Example 9], 0.3 to 3 nM; that for `Cc1ccc2ccc(C(=O)N=C(N)N)cc2c1-c1ccc(C#N)cc1` [Example 10], 0.3 to 3 nM. In the case of `Cc1ccc2ccc(C(=O)N=C(N)N)cc2c1-c1ccc(F)cc1` [Example 11], the Ki is 0.3 to 3 nM.

As to `COc1ccc(-c2c(C)ccc3ccc(C(=O)N=C(N)N)cc23)cc1` [Example 12], the Ki was 0.3 to 3 nM. The value for `NC(N)=NC(=O)c1ccc2cccc(-c3ccccc3O)c2c1` [Example 13] was 0.3 to 3 nM; that for `NC(N)=NC(=O)c1ccc2cccc(-c3c(F)cc(F)cc3F)c2c1` [Example 14] was 0.3 to 3 nM. `COc1ccc(C#N)cc1-c1cccc2ccc(C(=O)N=C(N)N)cc12` [Example 15]: the Ki is 3 to 30 nM. Turning to `N#Cc1cc(F)ccc1-c1cccc2ccc(C(=O)N=C(N)N)cc12` [Example 16], the Ki is 3 to 30 nM. In the case of `Cc1nc(C)c(-c2cccc3ccc(C(=O)N=C(N)N)cc23)s1` [Example 17], the inhibition constant Ki was 3 to 30 nM. Turning to `COc1cccc(F)c1-c1cccc2ccc(C(=O)N=C(N)N)cc12` [Example 18], the Ki was 0.3 to 3 nM. Turning to `NC(N)=NC(=O)c1ccc2cccc(-c3cccnc3Cl)c2c1` [Example 19], the Ki was 3 to 30 nM. On to `N#Cc1ccccc1-c1cccc2ccc(C(=O)N=C(N)N)cc12` [Example 20], for which the Ki is 3 to 30 nM. As for `NC(N)=NC(=O)c1ccc2cccc(-c3cccnc3)c2c1` [Example 21], the Ki is 3 to 30 nM. For the molecule `NC(N)=NC(=O)c1ccc2cccc(C3=CCOCC3)c2c1` [Example 22], the Ki is 3 to 30 nM.

For `NC(N)=NC(=O)c1ccc2cccc(-c3ccc(F)nc3)c2c1` [Example 23], the Ki was 3 to 30 nM. For `Cc1ccc(-c2cccc3ccc(C(=O)N=C(N)N)cc23)cn1` [Example 24], the Ki was 3 to 30 nM. With `NC(N)=NC(=O)c1ccc2cccc(-c3ccncc3F)c2c1` [Example 25], the Ki was 0.3 to 3 nM. The value for `N#Cc1cccc(F)c1-c1cccc2ccc(C(=O)N=C(N)N)cc12` [Example 26] was 0.3 to 3 nM. On to `COc1c(F)cccc1-c1cccc2ccc(C(=O)N=C(N)N)cc12` [Example 27], for which the Ki is 3 to 30 nM. The value for `NC(N)=NC(=O)c1ccc2cccc(-c3cccc4c3OCCO4)c2c1` [Example 28] was 3 to 30 nM; that for `N#Cc1c(F)cccc1-c1cccc2ccc(C(=O)N=C(N)N)cc12` [Example 29] was 3 to 30 nM; that for `COc1cccc(C#N)c1-c1cccc2ccc(C(=O)N=C(N)N)cc12` [Example 30] was 3 to 30 nM. As for `NC(N)=NC(=O)c1ccc2cccc(-c3c(F)cncc3F)c2c1` [Example 31], the Ki is 0.3 to 3 nM. Consider `COc1cccc(Cl)c1-c1cccc2ccc(C(=O)N=C(N)N)cc12` [Example 32], for which the Ki is 0.3 to 3 nM.

Take `N#Cc1cc(Cl)ccc1-c1cccc2ccc(C(=O)N=C(N)N)cc12` [Example 33]: the Ki is 3 to 30 nM. With `COc1ccc(F)cc1-c1cccc2ccc(C(=O)N=C(N)N)cc12` [Example 34], the Ki was 3 to 30 nM. In the case of `NC(N)=NC(=O)c1ccc2cccc(-c3ccc(F)cc3F)c2c1` [Example 35], the Ki was 0.3 to 3 nM. As for `NC(N)=NC(=O)c1ccc2cccc(-c3c(F)cccc3F)c2c1` [Example 36], the Ki is 0.3 to 3 nM.

As to `NC(N)=NC(=O)c1ccc2cccc(-c3ccc(Cl)nc3Cl)c2c1` [Example 37], the Ki is 3 to 30 nM. For `NC(N)=NC(=O)c1ccc2cccc(-c3cc(Cl)ncc3Cl)c2c1` [Example 38], the inhibition constant (Ki) was 3 to 30 nM. The value for `N#Cc1ccc(F)cc1-c1cccc2ccc(C(=O)N=C(N)N)cc12` [Example 39] was 30 to 300 nM. In the case of `COc1cccc(-c2cccc3ccc(C(=O)N=C(N)N)cc23)c1F` [Example 40], the Ki is 3 to 30 nM. In the case of `COc1ccc(F)c(-c2cccc3ccc(C(=O)N=C(N)N)cc23)c1` [Example 41], the inhibition constant Ki is 3 to 30 nM.

As for `COc1cc(F)cc(F)c1-c1cccc2ccc(C(=O)N=C(N)N)cc12` [Example 42], the Ki was 0.3 to 3 nM. On to `NC(N)=NC(=O)c1ccc2cccc(-c3c(F)cc(Cl)cc3F)c2c1` [Example 43], for which the Ki was 0.3 to 3 nM. The value for `NC(N)=NC(=O)c1ccc2cccc(-c3ccncc3Cl)c2c1` [Example 44] was 0.3 to 3 nM; that for `NC(N)=NC(=O)c1ccc2cccc(-c3c(Cl)cncc3Cl)c2c1` [Example 45] was 0.3 to 3 nM; that for `NC(N)=NC(=O)c1ccc2cccc(-c3cccs3)c2c1` [Example 46] was 0.3 to 3 nM. For the molecule `NC(N)=NC(=O)c1ccc2cccc(-c3ccsc3)c2c1` [Example 47], the inhibitory constant (Ki) was 0.3 to 3 nM.

On to `Cc1ccsc1-c1cccc2ccc(C(=O)N=C(N)N)cc12` [Example 48], for which the Ki is 0.3 to 3 nM. The value for `NC(N)=NC(=O)c1ccc2cccc(-c3sccc3Cl)c2c1` [Example 49] was 0.3 to 3 nM; that for `N#Cc1ccc(-c2cccc3ccc(C(=O)N=C(N)N)cc23)s1` [Example 50] was 0.3 to 3 nM; that for `N#Cc1sccc1-c1cccc2ccc(C(=O)N=C(N)N)cc12` [Example 51] was 3 to 30 nM. As for `NC(N)=NC(=O)c1ccc2cccc(-c3ccnc(F)c3)c2c1` [Example 52], the Ki is 3 to 30 nM. With `NC(N)=NC(=O)c1ccc2cccc(-c3ccnc(Cl)c3)c2c1` [Example 53], the Ki is 3 to 30 nM.

Take `NC(N)=NC(=O)c1ccc2cccc(-c3ccc(Cl)nc3)c2c1` [Example 54]: the Ki is 3 to 30 nM. Consider `NC(N)=NC(=O)c1ccc2cccc(-c3cncc(F)c3)c2c1` [Example 55], for which the Ki was 3 to 30 nM. Regarding `N#Cc1ncccc1-c1cccc2ccc(C(=O)N=C(N)N)cc12` [Example 56], the inhibitory constant (Ki) is 3 to 30 nM. Regarding `COc1cc(Cl)ccc1-c1cccc2ccc(C(=O)N=C(N)N)cc12` [Example 57], the Ki was 0.3 to 3 nM. The value for `NC(N)=NC(=O)c1ccc2cccc(-c3c(Cl)cccc3Cl)c2c1` [Example 58] was 0.3 to 3 nM. For the molecule `NC(N)=NC(=O)c1ccc2cccc(-c3ccc(Cl)cc3F)c2c1` [Example 59], the Ki was 0.3 to 3 nM. Turning to `NC(N)=NC(=O)c1ccc2cccc(-c3ccc(F)cc3Cl)c2c1` [Example 60], the Ki was 0.3 to 3 nM. The value for `NC(N)=NC(=O)c1ccc2cccc(-c3ccc(Cl)cc3Cl)c2c1` [Example 61] was 0.3 to 3 nM; that for `NC(N)=NC(=O)c1ccc2cccc(-c3cccnc3F)c2c1` [Example 62] was 0.3 to 3 nM; that for `COc1cc(-c2cccc3ccc(C(=O)N=C(N)N)cc23)c(Cl)cn1` [Example 63] was 3 to 30 nM. On to `CCOc1nccc(-c2cccc3ccc(C(=O)N=C(N)N)cc23)c1C#N` [Example 64], for which the Ki is 3 to 30 nM. Regarding `NC(N)=NC(=O)c1ccc2cccc(-c3cc(F)ncc3Cl)c2c1` [Example 65], the Ki is 3 to 30 nM.

With `CCOc1ncc(Cl)c(-c2cccc3ccc(C(=O)N=C(N)N)cc23)c1F` [Example 66], the Ki is 0.3 to 3 nM.

Turning to `CCOc1ncc(Cl)c(-c2cccc3ccc(C(=O)N=C(N)N)cc23)c1Cl` [Example 67], the Ki was 0.3 to 3 nM.
